For one assay, the system named is P. falciparum culture. To be noted: cited from earlier work.
The test system of a further assay is gamma interferon. Briefly: in vitro gamma interferon production. The class given is cell-based. From the text:
Moreover, the increase in gamma interferon may have a far greater impact on reversing the course of HIV-1 infection. […] Therefore, further evaluation of 90I in malaria cell-lines may provide the opportunity to find new clinical uses for an established HIV antiprotease patented drug. Also, the purpose of this approach is to lower the costs and shorten the timeframe of product development.

Assay [1] has as its system RF laboratory strain of HIV-1. Briefly: antiviral evaluation in CEM-SS cell line against HIV-1 RF. It is filed as cell-based. To be noted: CEM-SS cells, HIV-1 RF strain. The method, then:
The purified fraction 90I may yield a fifty percent effective concentration (EC50) of 0.020 ug/ml. At the same time, there was no discernible drug induced toxicity in this study (50% inhibitory concentration ([…]) was greater than the high-test concentration of 100 ug/ml).

Assay [2] concerns the target P. falciparum lactate dehydrogenase (Plasmodium falciparum, UniProt Q27743). To be noted: cited from earlier work.
The target of assay [3] is P. falciparum aspartic protease plasmepsin II (Plasmodium falciparum, UniProt P46925). To be noted: read-out: 1050, plasmepsin II; cited from earlier work.

Values after ≈ are worked out from the molar mass of the structure shown. Where two headings read alike, the source gives them in different places.

P. falciparum lactate dehydrogenase, sequence (Q27743 whole entry): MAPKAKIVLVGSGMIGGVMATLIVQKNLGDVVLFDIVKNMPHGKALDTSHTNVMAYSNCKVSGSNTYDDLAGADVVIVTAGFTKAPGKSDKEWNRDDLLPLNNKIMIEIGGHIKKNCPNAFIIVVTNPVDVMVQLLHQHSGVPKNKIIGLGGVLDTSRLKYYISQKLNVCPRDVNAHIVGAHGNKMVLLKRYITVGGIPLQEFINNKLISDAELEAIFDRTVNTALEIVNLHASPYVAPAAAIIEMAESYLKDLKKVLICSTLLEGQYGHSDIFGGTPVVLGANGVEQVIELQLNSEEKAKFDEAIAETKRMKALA
P. falciparum aspartic protease plasmepsin II, sequence (P46925 125-453): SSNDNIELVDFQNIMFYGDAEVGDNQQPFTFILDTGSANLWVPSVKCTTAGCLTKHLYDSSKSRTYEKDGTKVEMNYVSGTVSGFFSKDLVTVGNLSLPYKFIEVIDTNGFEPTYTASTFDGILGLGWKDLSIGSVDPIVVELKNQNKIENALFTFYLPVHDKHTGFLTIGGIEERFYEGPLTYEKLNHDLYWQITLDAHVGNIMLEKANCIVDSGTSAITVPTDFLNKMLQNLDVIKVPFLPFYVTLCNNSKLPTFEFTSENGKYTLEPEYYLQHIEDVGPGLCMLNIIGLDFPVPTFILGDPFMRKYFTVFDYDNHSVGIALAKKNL

Take `CC(C)C[C@H](NC(=O)[C@H]1O[C@@H]1C(=O)O)C(=O)NCCCCN=C(N)N` (relative stereo) [E64, trans-Epoxysuccinyl-L-leucylamido(4-guanidino)butane]: in the assay with P. falciparum culture, the “effects on P. falciparum culture” value is on record as “blocked parasite release”.

Take `O=C(OCCOCCOC(=O)c1ccccc1)c1ccccc1` [90I, diethylene glycol dibenzoate]: the “production of gamma interferon” value with gamma interferon is listed as “increased production of gamma interferon”. Besides, the “therapeutic index (T1=IC50/EC50)” value in assay [1] is “greater than 5000”. The EC50 in assay [1] (Human immunodeficiency virus 1, read-out: fifty percent effective concentration (EC50)) was found to be 0.02 µg/mL (≈ 0.0636 µM). `CC(=O)N[C@@H](CC(C)C)C(=O)N[C@@H](CC(C)C)C(=O)N[C@H](C=O)CCCNC(=N)N` [Leupeptin, N-acetyl-L-leucyl-L-leucy-L-argininal]: in the assay on P. falciparum culture (10 μg/ml), the “effects on P. falciparum culture” value is reported as “All three of these effects were also seen”. As for `CCCC[C@@H](C=O)NC(=O)[C@H](CC(C)C)NC(=O)OCc1ccccc1` [calpeptin], in the assay with P. falciparum culture (1 μM), the “effects on P. falciparum culture” value was “All three of these effects were also seen”. Take `CCN(CC)CCCC(C)Nc1ccnc2cc(Cl)ccc12` (centres unmarked) [chloroquine]: in assay [2], the “inhibition of lactate dehydrogenase” value is recorded as “weak inhibitor”. `Cc1cccc(C)c1OCC(=O)N[C@@H](Cc1ccccc1)[C@@H](O)C[C@H](Cc1ccccc1)NC(=O)[C@H](C(C)C)N1CCCNC1=O` [lopinavir]: the IC50 in assay [3] is 2700 nM.

The record behind these values is patent US20210386814A1, “METHODS AND COMPOUND FOR THE TREATMENT OF MALARIA” (priority 2020, published 2021).
